Results reported in the CheMixHub viscosity set.
± gives the uncertainty stated by the source.

Test: xn = mol fraction of the nth substance listed

Compound CCCCCCBr + C=C(C)C(=O)OC has a viscosity (303.15 K, 101 kPa, x2 = 0.1439) of 0.8087 ± 0.0074 mPa·s, a viscosity (303.15 K, 101 kPa, x2 = 0.2632) of 0.7611 ± 0.0071 mPa·s and a viscosity (303.15 K, 101 kPa, x2 = 0.4885) of 0.6895 ± 0.0067 mPa·s. For the same compound, the viscosity (303.15 K, 101 kPa, x2 = 0.5904) was 0.6665 ± 0.0066 mPa·s, the viscosity (303.15 K, 101 kPa, x2 = 0.6826) was 0.6354 ± 0.0064 mPa·s and the viscosity (303.15 K, 101 kPa, x2 = 0.8513) was 0.5709 ± 0.0061 mPa·s. It also gave a viscosity (303.15 K, 101 kPa, x2 = 0.9171) of 0.5459 ± 0.0059 mPa·s.

Compound COC(=O)c1ccccc1 + c1ccccc1 has a viscosity (303.15 K, 101 kPa, x1 = 0.0773) of 0.613 ± 0.011 mPa·s, a viscosity (303.15 K, 101 kPa, x1 = 0.1534) of 0.675 ± 0.011 mPa·s and a viscosity (303.15 K, 101 kPa, x1 = 0.2362) of 0.75 ± 0.01 mPa·s. It also gave a viscosity (303.15 K, 101 kPa, x1 = 0.3252) of 0.835 ± 0.012 mPa·s, a viscosity (303.15 K, 101 kPa, x1 = 0.4217) of 0.929 ± 0.012 mPa·s and a viscosity (303.15 K, 101 kPa, x1 = 0.5176) of 1.043 ± 0.012 mPa·s. For the same compound, the viscosity (303.15 K, 101 kPa, x1 = 0.6241) was 1.165 ± 0.013 mPa·s, the viscosity (303.15 K, 101 kPa, x1 = 0.7379) was 1.305 ± 0.013 mPa·s and the viscosity (303.15 K, 101 kPa, x1 = 0.8662) was 1.482 ± 0.014 mPa·s. It also gave a viscosity (313.15 K, 101 kPa, x1 = 0.0773) of 0.543 ± 0.011 mPa·s, a viscosity (313.15 K, 101 kPa, x1 = 0.1534) of 0.588 ± 0.011 mPa·s and a viscosity (313.15 K, 101 kPa, x1 = 0.2362) of 0.645 ± 0.011 mPa·s. For the same compound, the viscosity (313.15 K, 101 kPa, x1 = 0.3252) was 0.71 ± 0.01 mPa·s, the viscosity (313.15 K, 101 kPa, x1 = 0.4217) was 0.784 ± 0.012 mPa·s and the viscosity (313.15 K, 101 kPa, x1 = 0.5176) was 0.874 ± 0.012 mPa·s. The viscosity (313.15 K, 101 kPa, x1 = 0.6241) was 0.985 ± 0.012 mPa·s, the viscosity (313.15 K, 101 kPa, x1 = 0.7379) was 1.107 ± 0.013 mPa·s and the viscosity (313.15 K, 101 kPa, x1 = 0.8662) was 1.245 ± 0.013 mPa·s.

For CCCCOCCO + Cc1ccccc1C, the viscosity (298.15 K, 101 kPa, x1 = 0.0549) was 0.797 ± 0.014 mPa·s, the viscosity (298.15 K, 101 kPa, x1 = 0.1475) was 0.891 ± 0.015 mPa·s and the viscosity (298.15 K, 101 kPa, x1 = 0.2508) was 1.004 ± 0.017 mPa·s. For the same compound, the viscosity (298.15 K, 101 kPa, x1 = 0.3485) was 1.129 ± 0.019 mPa·s, the viscosity (298.15 K, 101 kPa, x1 = 0.4527) was 1.286 ± 0.021 mPa·s and the viscosity (298.15 K, 101 kPa, x1 = 0.5) was 1.366 ± 0.022 mPa·s. It also gave a viscosity (298.15 K, 101 kPa, x1 = 0.5489) of 1.457 ± 0.024 mPa·s, a viscosity (298.15 K, 101 kPa, x1 = 0.6483) of 1.666 ± 0.027 mPa·s and a viscosity (298.15 K, 101 kPa, x1 = 0.7518) of 1.925 ± 0.03 mPa·s. The viscosity (298.15 K, 101 kPa, x1 = 0.8493) was 2.216 ± 0.035 mPa·s, the viscosity (298.15 K, 101 kPa, x1 = 0.9524) was 2.586 ± 0.04 mPa·s and the viscosity (308.15 K, 101 kPa, x1 = 0.0549) was 0.686 ± 0.012 mPa·s. The viscosity (308.15 K, 101 kPa, x1 = 0.1475) was 0.756 ± 0.013 mPa·s, the viscosity (308.15 K, 101 kPa, x1 = 0.2508) was 0.84 ± 0.015 mPa·s and the viscosity (308.15 K, 101 kPa, x1 = 0.3485) was 0.933 ± 0.016 mPa·s. For the same compound, the viscosity (308.15 K, 101 kPa, x1 = 0.4527) was 1.052 ± 0.018 mPa·s, the viscosity (308.15 K, 101 kPa, x1 = 0.5) was 1.113 ± 0.019 mPa·s and the viscosity (308.15 K, 101 kPa, x1 = 0.5489) was 1.182 ± 0.02 mPa·s. The viscosity (308.15 K, 101 kPa, x1 = 0.6483) was 1.341 ± 0.022 mPa·s, the viscosity (308.15 K, 101 kPa, x1 = 0.7518) was 1.54 ± 0.025 mPa·s and the viscosity (308.15 K, 101 kPa, x1 = 0.8493) was 1.765 ± 0.028 mPa·s. For the same compound, the viscosity (308.15 K, 101 kPa, x1 = 0.9524) was 2.053 ± 0.033 mPa·s.

O=C(OCc1ccccc1)c1ccccc1 + CCOC(=O)c1ccccc1C(=O)OCC showed a viscosity (313.15 K, 101.33 kPa, x1 = 0.25) of 5.87 ± 0.059 mPa·s, a viscosity (313.15 K, 101.33 kPa, x1 = 0.5) of 5.54 ± 0.055 mPa·s and a viscosity (313.15 K, 101.33 kPa, x1 = 0.75) of 5.27 ± 0.053 mPa·s.

In the case of COC(=O)c1ccccc1 + CCO, the viscosity (293.2 K, 100 kPa, x1 = 0.05) is reported as 1.178 ± 0.025 mPa·s, the viscosity (293.2 K, 100 kPa, x1 = 0.1) is reported as 1.178 ± 0.025 mPa·s and the viscosity (293.2 K, 100 kPa, x1 = 0.2) is reported as 1.207 ± 0.026 mPa·s. The viscosity (293.2 K, 100 kPa, x1 = 0.3) was 1.26 ± 0.027 mPa·s, the viscosity (293.2 K, 100 kPa, x1 = 0.4) was 1.325 ± 0.028 mPa·s and the viscosity (293.2 K, 100 kPa, x1 = 0.5) was 1.402 ± 0.03 mPa·s. The viscosity (293.2 K, 100 kPa, x1 = 0.6) was 1.489 ± 0.032 mPa·s, the viscosity (293.2 K, 100 kPa, x1 = 0.65) was 1.536 ± 0.033 mPa·s and the viscosity (293.2 K, 100 kPa, x1 = 0.8) was 1.701 ± 0.036 mPa·s. For the same compound, the viscosity (293.2 K, 100 kPa, x1 = 0.9) was 1.842 ± 0.039 mPa·s, the viscosity (298.2 K, 100 kPa, x1 = 0.05) was 1.074 ± 0.023 mPa·s and the viscosity (298.2 K, 100 kPa, x1 = 0.1) was 1.076 ± 0.023 mPa·s. The viscosity (298.2 K, 100 kPa, x1 = 0.2) was 1.102 ± 0.024 mPa·s, the viscosity (298.2 K, 100 kPa, x1 = 0.3) was 1.15 ± 0.025 mPa·s and the viscosity (298.2 K, 100 kPa, x1 = 0.4) was 1.208 ± 0.026 mPa·s. For the same compound, the viscosity (298.2 K, 100 kPa, x1 = 0.5) was 1.276 ± 0.027 mPa·s, the viscosity (298.2 K, 100 kPa, x1 = 0.6) was 1.355 ± 0.029 mPa·s and the viscosity (298.2 K, 100 kPa, x1 = 0.65) was 1.397 ± 0.03 mPa·s. For the same compound, the viscosity (298.2 K, 100 kPa, x1 = 0.8) was 1.542 ± 0.033 mPa·s, the viscosity (298.2 K, 100 kPa, x1 = 0.9) was 1.667 ± 0.036 mPa·s and the viscosity (303.2 K, 100 kPa, x1 = 0.05) was 0.98 ± 0.021 mPa·s. It also gave a viscosity (303.2 K, 100 kPa, x1 = 0.1) of 0.983 ± 0.021 mPa·s, a viscosity (303.2 K, 100 kPa, x1 = 0.2) of 1.008 ± 0.022 mPa·s and a viscosity (303.2 K, 100 kPa, x1 = 0.3) of 1.052 ± 0.022 mPa·s. It also gave a viscosity (303.2 K, 100 kPa, x1 = 0.4) of 1.106 ± 0.024 mPa·s, a viscosity (303.2 K, 100 kPa, x1 = 0.5) of 1.167 ± 0.025 mPa·s and a viscosity (303.2 K, 100 kPa, x1 = 0.6) of 1.238 ± 0.026 mPa·s. The viscosity (303.2 K, 100 kPa, x1 = 0.65) was 1.276 ± 0.027 mPa·s, the viscosity (303.2 K, 100 kPa, x1 = 0.8) was 1.408 ± 0.03 mPa·s and the viscosity (303.2 K, 100 kPa, x1 = 0.9) was 1.518 ± 0.032 mPa·s. It also gave a viscosity (308.2 K, 100 kPa, x1 = 0.05) of 0.896 ± 0.019 mPa·s, a viscosity (308.2 K, 100 kPa, x1 = 0.1) of 0.901 ± 0.019 mPa·s and a viscosity (308.2 K, 100 kPa, x1 = 0.2) of 0.925 ± 0.02 mPa·s. It also gave a viscosity (308.2 K, 100 kPa, x1 = 0.3) of 0.966 ± 0.021 mPa·s, a viscosity (308.2 K, 100 kPa, x1 = 0.4) of 1.015 ± 0.022 mPa·s and a viscosity (308.2 K, 100 kPa, x1 = 0.5) of 1.072 ± 0.023 mPa·s. It also gave a viscosity (308.2 K, 100 kPa, x1 = 0.6) of 1.137 ± 0.024 mPa·s, a viscosity (308.2 K, 100 kPa, x1 = 0.65) of 1.17 ± 0.025 mPa·s and a viscosity (308.2 K, 100 kPa, x1 = 0.8) of 1.291 ± 0.028 mPa·s. It also gave a viscosity (308.2 K, 100 kPa, x1 = 0.9) of 1.391 ± 0.03 mPa·s, a viscosity (313.2 K, 100 kPa, x1 = 0.05) of 0.822 ± 0.018 mPa·s and a viscosity (313.2 K, 100 kPa, x1 = 0.1) of 0.827 ± 0.018 mPa·s. The viscosity (313.2 K, 100 kPa, x1 = 0.2) was 0.851 ± 0.018 mPa·s, the viscosity (313.2 K, 100 kPa, x1 = 0.3) was 0.89 ± 0.019 mPa·s and the viscosity (313.2 K, 100 kPa, x1 = 0.4) was 0.936 ± 0.02 mPa·s. For the same compound, the viscosity (313.2 K, 100 kPa, x1 = 0.5) was 0.988 ± 0.021 mPa·s, the viscosity (313.2 K, 100 kPa, x1 = 0.6) was 1.047 ± 0.022 mPa·s and the viscosity (313.2 K, 100 kPa, x1 = 0.65) was 1.079 ± 0.023 mPa·s. It also gave a viscosity (313.2 K, 100 kPa, x1 = 0.8) of 1.188 ± 0.025 mPa·s and a viscosity (313.2 K, 100 kPa, x1 = 0.9) of 1.279 ± 0.027 mPa·s.
